Experimental data published in patent US8080657B2, “Compounds of reverse turn mimetics and the use thereof” (Choongwae Pharma Corporation, priority 2008, dated 2011).

test system: Wnt signaling; assay: TopFlash reporter gene bioassay in SW480 cells; assay type: cell-based; conditions: Homo sapiens, SW480, TopFlash reporter gene assay, inhibition of Wnt signaling; read-out: RGA, IC50 (μM) TopF

SMILES	IC50 [µM]
C=CCN1CC(=O)N2[C@@H](Cc3ccc(O)cc3)C(=O)N(Cc3ccc(F)c4scnc34)C[C@@H]2N1C(=O)NCc1ccc(OC)c(OC)c1 [compound 224]	4.3 ± 0.7
C=CCN1CC(=O)N2[C@@H](Cc3ccc(O)cc3)C(=O)N(Cc3ccc(OCCCC)cc3)C[C@@H]2N1C(=O)NCc1ccccc1 [compound 214]	3.72 ± 0.47
C=CCN1CC(=O)N2[C@@H](Cc3ccc(NC=O)cc3)C(=O)N(Cc3cccc4scnc34)C[C@@H]2N1C(=O)NCc1ccccc1 [compound 50]	0.72 ± 0.075
C=CCN1CC(=O)N2[C@@H](Cc3ccc(O)cc3)C(=O)N(Cc3cccc(C(=O)NCc4ccccc4)c3)C[C@@H]2N1C(=O)NCc1ccccc1 [compound 56]	0.74 ± 1.46
C=CCN1CC(=O)N2[C@@H](Cc3ccc(O)cc3)C(=O)N(Cc3cc(C(C)(C)C)cc(C(C)(C)C)c3OC)C[C@@H]2N1C(=O)NCc1ccccc1 [compound 150]	10.2 ± 1.55
C=CCN1CC(=O)N2[C@@H](Cc3ccc(O)cc3)C(=O)N(Cc3csc4cc(NC(N)=O)ccc34)C[C@@H]2N1C(=O)NCc1ccccc1 [compound 201]	26.1 ± 7.1
C=CCN1CC(=O)N2[C@@H](Cc3ccc(O)cc3)C(=O)N(Cc3cccc4[nH]cnc34)C[C@@H]2N1C(=O)NCc1ccccc1 [compound 49]	0.71 ± 0.43
C=CCN1CC(=O)N2[C@@H](Cc3ccc(O)cc3)C(=O)N(Cc3csc4c(NC(C)=O)cccc34)C[C@@H]2N1C(=O)NCc1ccccc1 [compound 250]	6.98 ± 1.45
C=CCN1CC(=O)N2[C@@H](Cc3ccc(O)cc3)C(=O)N(Cc3ccccc3S(=O)(=O)c3ccc(Cl)cc3)C[C@@H]2N1C(=O)NCc1ccccc1 [compound 170]	2.07 ± 0.43
C=CCN1CC(=O)N2[C@@H](Cc3ccc(O)cc3)C(=O)N(Cc3cn(-c4cccc(F)c4)c4ccccc34)C[C@@H]2N1C(=O)NCc1ccccc1 [compound 166]	17.5 ± 5.57
C=CCN1CC(=O)N2[C@@H](Cc3ccc(O)cc3)C(=O)N(Cc3ccc(C(C)(C)C)cc3)C[C@@H]2N1C(=O)NCc1ccccc1 [compound 236]	41.7 ± 4.2
C=CCN1CC(=O)N2[C@@H](Cc3ccc(O)cc3)C(=O)N(Cc3csc4cc(NC(=O)OC)ccc34)C[C@@H]2N1C(=O)NCc1ccccc1 [compound 45]	0.67 ± 0.09
C=CCN1CC(=O)N2[C@@H](Cc3ccc(O)cc3)C(=O)N(Cc3cccc(-c4ccc(S(C)(=O)=O)cc4)n3)C[C@@H]2N1C(=O)NCc1ccccc1 [compound 261]	8.48 ± 0.9
C=CCN1CC(=O)N2[C@@H](Cc3ccc(O)cc3)C(=O)N(Cc3cccc(C(=O)NCC4CCCO4)c3)C[C@@H]2N1C(=O)NCc1ccccc1 (stereo partly shown) [compound 106]	1.28 ± 0.1
C=CCN1CC(=O)N2[C@@H](Cc3ccc(O)cc3)C(=O)N(Cc3ccc(N)c([N+](=O)[O-])c3)C[C@@H]2N1C(=O)NCc1ccccc1 [compound 254]	7.13 ± 1.35
C=CCN1CC(=O)N2[C@@H](Cc3ccc(O)cc3)C(=O)N(Cc3cccc4c(C(=O)C5CC5)cn(S(=O)(=O)c5ccc(C)cc5)c34)C[C@@H]2N1C(=O)NCc1ccccc1 [compound 1]	0.081 ± 0.0086
C=CCOc1ccccc1CN1C[C@H]2N(C(=O)CN(CC=C)N2C(=O)NCc2ccccc2)[C@@H](Cc2ccc(O)cc2)C1=O [compound 145]	1.96 ± 0.27
C=CCN1CC(=O)N2[C@@H](Cc3ccc(O)cc3)C(=O)N(Cc3csc4ccc(Cl)cc34)C[C@@H]2N1C(=O)NCc1ccccc1 [compound 43]	0.66 ± 0.06

same assay, conditions: Homo sapiens, SW480; read-out: RGA, IC50 (μM) TopF

SMILES	IC50 [µM]
C=CCN1CC(=O)N2[C@@H](Cc3ccc(O)cc3)C(=O)N(Cc3cccc(C(=O)NCCC)c3)C[C@@H]2N1C(=O)NCc1ccccc1 [compound 9]	0.3 ± 0.02
C=CCN1CC(=O)N2[C@@H](Cc3ccc(O)cc3)C(=O)N(Cc3csc4ccc(NC=O)cc34)C[C@@H]2N1C(=O)NCc1ccccc1 [compound 185]	2.61 ± 0.19
C=CCN1CC(=O)N2[C@@H](Cc3ccc(OP(=O)(O)O)cc3)C(=O)N(Cc3cccc(OCCN4CCOCC4)c3)C[C@@H]2N1C(=O)NCc1ccccc1 [compound 172]	2.21 ± 0.35
C=CCN1CC(=O)N2[C@@H](Cc3ccc(O)cc3)C(=O)N(Cc3cccc(C(=O)N4CCCC4)c3)C[C@@H]2N1C(=O)NCc1ccccc1 [compound 189]	2.68 ± 0.48

same assay, conditions: TopFlash reporter gene assay, inhibition of Wnt signaling; read-out: RGA, IC50 (μM) TopF

SMILES	IC50 [µM]
C=CCN1CC(=O)N2[C@@H](Cc3ccc(O)cc3)C(=O)N(Cc3ccc(F)c4scnc34)C[C@@H]2N1C(=O)NCCc1ccccc1 [compound 245]	6.19 ± 0.73
C=CCN1CC(=O)N2[C@@H](Cc3ccc(O)cc3)C(=O)N(Cc3ccc(F)c4scnc34)C[C@@H]2N1C(=O)NCCc1ccccc1 [compound 178]	2.38 ± 0.75

target: T1, cDNA-expressed human hepatic CYP3A4 (Homo sapiens, UniProt P08684); assay: P450 CYP3A4 inhibitory activity screening (BFC substrate, fluorescence); assay type: biochemical; conditions: P450 CYP3A4 inhibitory activity screening, fluorescent assay; read-out: CYP3A4 inhibition, IC50 (μM) fluorescent assay
T1 construct: purchased BD Gentest 456202
T1 sequence (P08684 whole entry): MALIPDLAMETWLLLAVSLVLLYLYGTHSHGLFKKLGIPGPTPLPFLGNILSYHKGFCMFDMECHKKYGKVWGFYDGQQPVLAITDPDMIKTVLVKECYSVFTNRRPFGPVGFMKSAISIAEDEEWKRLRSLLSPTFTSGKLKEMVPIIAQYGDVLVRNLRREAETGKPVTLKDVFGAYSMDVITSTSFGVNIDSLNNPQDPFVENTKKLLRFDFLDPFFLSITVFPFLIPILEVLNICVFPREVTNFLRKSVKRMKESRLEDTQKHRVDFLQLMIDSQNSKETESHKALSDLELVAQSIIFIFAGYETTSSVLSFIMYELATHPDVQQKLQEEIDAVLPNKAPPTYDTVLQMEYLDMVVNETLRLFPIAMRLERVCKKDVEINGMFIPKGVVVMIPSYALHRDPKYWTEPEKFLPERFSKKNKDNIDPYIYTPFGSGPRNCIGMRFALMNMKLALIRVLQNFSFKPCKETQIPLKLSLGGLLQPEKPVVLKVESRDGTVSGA
Description: P450 CYP3A4 Inhibitory Activity Screening
Assay was conducted in a 200 μL volume in 96-well microtiter plates using cDNA-expressed human hepatic CYP3A4 (supersome, BD Gentest™ #456202). 7-Benzyloxy-4-trifluoromethyl-coumarin (BFC) was used as a substrate for CYP3A4. Test articles and substrate BFC were dissolved in 100% acetonitrile. The final volume of acetonitrile in the incubation mixture was less than 1% (volume/volume). Potassium phosphate buffer (pH 7.4, final concentration 0.1 M), MgCl2 (final concentration 8.3 mM), EDTA (final concentration 1.67 mM), a test article stock solution, a CYP3A4 supersome and NADPH (final concentration 0.25 mM) were added to each well. The reaction was initiated by the addition of substrate (BFC, final concentration 30 µM) after a 10 min pre-incubation at 37° C. After 10 min incubation at 37° C., the reaction was terminated by the addition of 75 μL of acetonitrile:0.5 M Tris-base=4:1 (volume/volume). Thereafter, Fluorescent signal was measured using a fluorometer. BFC metabolite, 7-hydroxy-4-trifluoromethyl-coumarin, was measured using an excitation wavelength of 409 nm and an emission wavelength of 530 nm.

SMILES	IC50 [µM]
C=CCN1CC(=O)N2[C@@H](Cc3ccc(O)cc3)C(=O)N(Cc3cccnc3N3CCC(N4CCCC4)CC3)C[C@@H]2N1C(=O)NCc1ccccc1 [compound 7]	6.84
C=CCN1CC(=O)N2[C@@H](Cc3ccc(O)cc3)C(=O)N(Cc3cccc4c(=O)ccoc34)C[C@@H]2N1C(=O)NCc1ccccc1 [compound 9]	6.95
C=CCN1CC(=O)N2[C@@H](Cc3ccc(O)cc3)C(=O)N(Cc3cccc(C(=O)O)c3)C[C@@H]2N1C(=O)NCc1ccc(Cl)cc1Cl [compound 50]	> 50
C=CCN1CC(=O)N2[C@@H](Cc3ccc(OS(N)(=O)=O)cc3)C(=O)N(Cc3cccc(C(=O)NC)n3)C[C@@H]2N1C(=O)NCc1ccccc1 [compound 35]	26.4
C=CCN1CC(=O)N2[C@@H](Cc3ccc(O)cc3)C(=O)N(Cc3cccc(C(N)=O)c3[N+](=O)[O-])C[C@@H]2N1C(=O)NCc1ccccc1 [compound 43]	44.4
C=CCN1CC(=O)N2[C@@H](Cc3ccc(O)cc3)C(=O)N(Cc3cccc4c(C(C)=O)c[nH]c34)C[C@@H]2N1C(=O)NCc1ccccc1 [compound 60]	4.84
C=CCN1CC(=O)N2C(CN(Cc3ccccc3S(C)(=O)=O)C(=O)[C@@H]2Cc2ccc(O)cc2)N1C(=O)NCc1ccccc1 (stereo partly shown) [compound 30]	18.7
C=CCN1CC(=O)N2[C@@H](Cc3ccc(O)cc3)C(=O)N(Cc3cccc(-c4ccc(S(C)(=O)=O)cc4)n3)C[C@@H]2N1C(=O)NCc1ccccc1 [compound 6]	6.78
C=CCN1CC(=O)N2[C@@H](Cc3ccc(O)cc3)C(=O)N(Cc3cccc(C(=O)O)n3)C[C@@H]2N1C(=O)NCc1ccccc1 [compound 56]	> 50
C=CCN1CC(=O)N2[C@@H](Cc3ccc(O)cc3)C(=O)N(Cc3ccccc3S(C)(=O)=O)C[C@@H]2N1C(=O)NCc1ccccn1 [compound 34]	24.5
C=CCN1CC(=O)N2[C@@H](Cc3ccc(O)cc3)C(=O)N(Cc3cccc(NC(C)=O)c3)C[C@@H]2N1C(=O)NCc1ccccc1 [compound 28]	17.9
C=CCN1CC(=O)N2[C@@H](Cc3ccc(O)cc3)C(=O)N(Cc3cccc(C(=O)N4CCOCC4)c3)C[C@@H]2N1C(=O)NCc1ccccc1 [compound 20]	10.1
C=CCN1CC(=O)N2[C@@H](Cc3ccc(O)cc3)C(=O)N(Cc3cccc4c(C(=O)C5CC5)c[nH]c34)C[C@@H]2N1C(=O)NCc1ccccc1 [compound 61]	5.92
C=CCN1CC(=O)N2[C@@H](Cc3ccc(O)cc3)C(=O)N(Cc3cccc(C(=O)NC)c3)C[C@@H]2N1C(=O)NCc1ccccc1 [compound 13]	8
C=CCN1CC(=O)N2[C@@H](Cc3ccc(O)cc3)C(=O)N(Cc3cccc(C(=O)NCC4CC4)c3)C[C@@H]2N1C(=O)NCc1ccccc1 [compound 12]	7.65
C=CCN1CC(=O)N2[C@@H](Cc3ccc(O)cc3)C(=O)N(Cc3cccc(-c4ccc[nH]c4=O)c3)C[C@@H]2N1C(=O)NCc1ccccc1 [compound 10]	7.02
